# Test results from patent EP4782453A1 (Beyang Therapeutics Co., Ltd., priority 2023, dated 2025).
# Like-named read-outs stand apart in the source and are kept apart here.
# Target: T1, Menin-MLL (Homo sapiens, UniProt O00255)
# T1 construct: His-Menin (M1-L615 end); purchased BIORTUS BP9210
# T1 sequence (O00255 1-615 isoform O00255-1): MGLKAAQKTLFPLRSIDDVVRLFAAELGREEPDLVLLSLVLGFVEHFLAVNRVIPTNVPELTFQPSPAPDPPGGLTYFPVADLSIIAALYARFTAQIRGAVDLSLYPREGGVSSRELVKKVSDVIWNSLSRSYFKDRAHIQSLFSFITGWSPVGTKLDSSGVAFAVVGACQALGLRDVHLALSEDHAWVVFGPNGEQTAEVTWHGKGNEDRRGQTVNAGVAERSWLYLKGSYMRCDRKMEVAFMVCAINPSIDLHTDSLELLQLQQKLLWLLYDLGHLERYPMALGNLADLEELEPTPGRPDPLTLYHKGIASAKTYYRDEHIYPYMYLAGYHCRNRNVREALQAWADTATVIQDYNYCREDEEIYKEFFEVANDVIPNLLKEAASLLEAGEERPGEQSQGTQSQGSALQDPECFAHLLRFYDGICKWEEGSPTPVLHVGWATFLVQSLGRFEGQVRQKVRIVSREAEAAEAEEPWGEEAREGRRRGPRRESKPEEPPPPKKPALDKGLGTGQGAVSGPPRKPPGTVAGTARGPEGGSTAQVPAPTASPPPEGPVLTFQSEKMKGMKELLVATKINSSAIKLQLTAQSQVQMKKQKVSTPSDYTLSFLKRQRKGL
# Experiment: Inhibitory activity against Menin-MLL binding (fluorescence polarization)
# Settings: 150 nM His-Menin, 15 nM FITC-MLL, 25°C for 60 min
# Outline: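 His-Menin (M1-L615, 150 nM) preincubated with compound 15 min at 25 °C in HEPES pH 7.5, 50 mM NaCl, 1 mM DTT, 0.01% BSA, then 15 nM FITC-MLL4-43 peptide added for 60 min at 25 °C. Fluorescence polarization read; IC50 from 4-parameter logistic fit, duplicates.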
# [1] = Menin-MLL IC50, fluorescence polarization
# [2] = fluorescence polarization, read-out: Menin-MLL IC50
smiles,measurement,setting,value
"CCS(=O)(=O)N[C@H]1CC[C@H](CN2CCC(c3cc(-c4ccc(F)cc4C(=O)N(CC(F)F)C(C)C)c4cnc(C)cn34)CC2)CC1 [Example 154, N-(2,2-difluoroethyl)-5-fluoro-2-[3-methyl-6-(1-{[(1r,4r)-4-ethanesulfonamidocyclohexyl]methyl}piperidin-4-yl)pyrrolo[1,2-a]pyrazin-8-yl]-N-(isopropyl)benzamide]",IC50,[1],0.166 µM
Cc1nc(F)c2c(-c3ccc(F)cc3C(=O)N(CC(F)F)C(C)C)cc(C3CN(C(=O)[C@@H]4C[C@@H](C)CCN4)C3)cn12 [Example 155],IC50,[2],0.023 µM
Cc1nc(F)c2c(-c3ccc(F)cc3C(=O)N(CC(F)F)C(C)C)cc(C3CN(C(=O)[C@H]4NCC[C@@H]4C)C3)cn12 [Example 156],IC50,[2],0.03 µM
CC(C)N(CC(F)F)C(=O)c1cc(F)ccc1-c1cc(C2CCN(C[C@@H]3CC[C@@H](NC(=O)OC(C)(C)C)CO3)C2)cc2c1cnn2C (stereo partly drawn) [Example 158],IC50,[2],0.165 µM
"CCS(=O)(=O)N[C@H]1CC[C@H](CN2CC(c3cc(-c4ccc(F)cc4C(=O)N4CCOC[C@H]4C)c4cnn(C)c4c3)C2)CC1 [Example 159, N-[(1r,4r)-4-{[3-(4-{4-fluoro-2-[(3R)-3-methylmorpholin-4-carbonyl]phenyl}-1-methyl-1H-indazol-6-yl)azacyclobutan-1-yl]methyl}cyclohexyl]ethan-1-sulfonamide]",IC50,[1],0.069 µM
CCS(=O)(=O)N[C@H]1CC[C@H](CCN2CC(c3cc(-c4ccc(F)cc4C(=O)N4CCOC[C@H]4C)c4cnn(C)c4c3)C2)CC1 [Example 160],IC50,[2],0.062 µM
"CCS(=O)(=O)N[C@H]1CC[C@H](CN2CC(Cc3cc(-c4ccc(F)cc4C(=O)N(CC(F)F)C(C)C)c4cnn(C)c4c3)C2)CC1 [Example 161, N-(2,2-difluoroethyl)-5-fluoro-2-{1-methyl-6-[(1-{[(1r,4r)-4-ethanesulfonamidocyclohexyl]methyl}azacyclobutan-3-yl)methyl]-1H-indazol-4-yl}-N-(isopropyl)benzamide]",IC50,[1],0.0335 µM
"CCS(=O)(=O)N[C@@H]1CC[C@@H](CN2CCC(c3cc(-c4ccc(F)cc4C(=O)N(CC(F)F)C(C)C)c4cnc(C)n4c3)C2)OC1 (stereo partly drawn) [Example 163, N-(2,2-difluoroethyl)-2-[6-(1-{[(2S,5R)-5-ethanesulfonamidooxacyclohexan-2-yl]methyl}pyrrolidin-3-yl)-3-methylimidazo[1,5-a]pyridin-8-yl]-5-fluoro-N-(isopropyl)benzamide]",IC50,[2],0.038 µM
"CCS(=O)(=O)N[C@@H]1CC[C@@H](CN2CC[C@@H](c3cc(-c4ccc(F)cc4C(=O)N(CC(F)F)C(C)C)c4cnc(C)n4c3)C2)OC1 [Example 163-1, N-(2,2-difluoroethyl)-2-{6-[(3S)-1-{[(2S,5R)-5-ethanesulfonamidooxacyclohexan-2-yl]methyl}pyrrolidin-3-yl]-3-methylimidazo[1,5-a]pyridin-8-yl}-5-fluoro-N-(isopropyl)benzamide]",IC50,[2],0.047 µM
"CCS(=O)(=O)N[C@@H]1CC[C@@H](CN2CC[C@H](c3cc(-c4ccc(F)cc4C(=O)N(CC(F)F)C(C)C)c4cnc(C)n4c3)C2)OC1 [Example 163-2, N-(2,2-difluoroethyl)-2-{6-[(3R)-1-{[(2S,5R)-5-ethanesulfonamidooxacyclohexan-2-yl]methyl}pyrrolidin-3-yl]-3-methylimidazo[1,5-a]pyridin-8-yl}-5-fluoro-N-(isopropyl)benzamide]",IC50,[2],0.054 µM
"CC(C)N(CC(F)F)C(=O)c1cc(F)ccc1-c1cc([C@@H]2CCN(CCN3CCC(NC(=O)OC(C)(C)C)CC3)C2)cc2c1cnn2C [Example 166-1, N-(1-{2-[(3S)-3-(4-{2-[(2,2-difluoroethyl)(isopropyl)aminoformyl]-4-fluorophenyl}-1-methyl-1H-indazol-6-yl)pyrrolidin-1-yl]ethyl}piperidin-4-yl)tert-butyl carbamate]",IC50,[2],0.231 µM
"CC(C)N(CC(F)F)C(=O)c1cc(F)ccc1-c1cc([C@H]2CCN(CCN3CCC(NC(=O)OC(C)(C)C)CC3)C2)cc2c1cnn2C [Example 166-2, N-(1-{2-[(3R)-3-(4-{2-[(2,2-difluoroethyl)(isopropyl)aminoformyl]-4-fluorophenyl}-1-methyl-1H-indazol-6-yl)pyrrolidin-1-yl]ethyl}piperidin-4-yl)tert-butyl carbamate]",IC50,[2],0.248 µM
CCS(=O)(=O)N[C@H]1CC[C@H](CN2CC(c3cc(-c4ccc(F)cc4C(=O)N4CCC[C@H]4C)c4cnn(C)c4c3)C2)CC1 [Example 167],IC50,[2],0.057 µM
"CCS(=O)(=O)N[C@H]1CC[C@H](CN2CCCC(c3cc(-c4ccc(F)cc4C(=O)N(CC(F)F)C(C)C)c4cnn(C)c4c3)C2)CC1 (stereo partly drawn) [Example 170, N-(2,2-difluoroethyl)-5-fluoro-2-[1-methyl-6-(1-{[(1r,4r)-4-ethanesulfonamidocyclohexyl]methyl}piperidin-3-yl)-1H-indazol-4-yl]-N-(isopropyl)benzamide]",IC50,[1],0.06 µM
"C[C@@H]1COCCN1C(=O)c1cc(F)ccc1-c1cc(C2CN(CC3CCN(C(=O)C4(O)CC4)CC3)C2)cc2c1cnn2C [Example 171, 1-(4-{[3-(4-{4-fluoro-2-[(3R)-3-methylmorpholin-4-carbonyl]phenyl}-1-methyl-1H-indazol-6-yl)azacyclobutan-1-yl]methyl}piperidin-1-carbonyl)cyclopropan-1-ol]",IC50,[2],0.086 µM
CNC(=O)N1CCC(CN2CC(c3cc(-c4ccc(F)cc4C(=O)N4CCOC[C@H]4C)c4cnn(C)c4c3)C2)CC1 [Example 172],IC50,[2],0.098 µM
C[C@@H]1COCCN1C(=O)c1cc(F)ccc1-c1cc(C2CN(CC3CCN(C(=O)CC#N)CC3)C2)cc2c1cnn2C [Example 173],IC50,[2],0.118 µM
"CCS(=O)(=O)N(C)[C@H]1CC[C@H](CN2CC(c3cc(-c4ccc(F)cc4C(=O)N4CCOC[C@H]4C)c4cnn(C)c4c3)C2)CC1 [Example 174, N-methyl-N-[(1r,4r)-4-{[3-(4-{4-fluoro-2-[(3R)-3-methylmorpholin-4-carbonyl]phenyl}-1-methyl-1H-indazol-6-yl)azacyclobutan-1-yl]methyl}cyclohexyl]ethan-1-sulfonamide]",IC50,[1],0.125 µM
"CCS(=O)(=O)N[C@H]1CC[C@H](CC(C)N2CC(c3cc(-c4ccc(F)cc4C(=O)N4CCOC[C@H]4C)c4cnn(C)c4c3)C2)CC1 (stereo partly drawn) [Example 175, N-[(1r,4r)-4-{2-[3-(4-{4-fluoro-2-[(3R)-3-methylmorpholin-4-carbonyl]phenyl}-1-methyl-1H-indazol-6-yl)azacyclobutan-1-yl]propyl}cyclohexyl]ethan-1-sulfonamide]",IC50,[1],0.138 µM
CC(C)CS(=O)(=O)N1CCC(CN2CC(c3cc(-c4ccc(F)cc4C(=O)N4CCOC[C@H]4C)c4cnn(C)c4c3)C2)CC1 [Example 176],IC50,[2],0.424 µM
CC(=O)N1CCC(CN2CC(c3cc(-c4ccc(F)cc4C(=O)N4CCOC[C@H]4C)c4cnn(C)c4c3)C2)CC1 [Example 177],IC50,[2],0.217 µM
"CCS(=O)(=O)N[C@H]1CC[C@H](C(C)N2CC(c3cc(-c4ccc(F)cc4C(=O)N4CCOC[C@H]4C)c4cnn(C)c4c3)C2)CC1 (stereo partly drawn) [Example 178, N-[(1r,4r)-4-{1-[3-(4-{4-fluoro-2-[(3R)-3-methylmorpholin-4-carbonyl]phenyl}-1-methyl-1H-indazol-6-yl)azacyclobutan-1-yl]ethyl}cyclohexyl]ethan-1-sulfonamide]",IC50,[1],0.115 µM
COCCN(C)CCCC(C(C)C)N1CC(Cc2cc(-c3ccc(F)cc3C(=O)N3CCOC[C@H]3C)c3cnn(C)c3c2)C1 (stereo partly drawn) [Example 179],IC50,[2],0.089 µM
COCCN(C)CCCC(C(C)C)N1CC(c2cc(-c3ccc(F)cc3C(=O)N(CC(F)F)C(C)C)c3cnn(C)c3c2)C1 (stereo not drawn) [Example 180],IC50,[2],0.022 µM
